Some test systems named below: A549 NSCLC; ACHN renal; HOP-62 NSCLC; IGROV1 ovarian; MOLT-4 leukemia; NCI-H522 lung; SK-MEL-28 melanoma; SK-MEL-5 melanoma; UO-31 renal; HCT-116 colon.
What all share (experiment): NCI anticancer screen, dose series, 48 h

Where “and” joins values, the source holds several entries; their conditions need not be identical. Equal values may be shown once.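 These data come from cells grown in 96-well plates and exposed to compound for 48 hours at five concentrations. Here, GI50 denotes the concentration required for 50% inhibition of growth. The concentration for full growth arrest is given as TGI.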

With `O=C(/C(=C/c1ccc([N+](=O)[O-])cc1)SCc1ccc(F)cc1)c1ccc(Cl)cc1`, the GI50 is more than 100 µM with A549 NSCLC; 1.96 µM in the assay on ACHN renal; 18.9 µM in the assay with HOP-62 NSCLC; 9.4 µM with IGROV1 ovarian; 3540 nM with MOLT-4 leukemia; 1.88 µM in the assay on NCI-H522 lung. In addition, the GI50 is 16.4 µM in the assay on SK-MEL-28 melanoma, 4.33 µM with SK-MEL-5 melanoma and 3.6 µM in the assay with UO-31 renal. Also, the TGI is more than 100 µM with A549 NSCLC; 4.1 µM in the assay on ACHN renal; 47.3 µM with HOP-62 NSCLC; 38.7 µM in the assay with IGROV1 ovarian; more than 100 µM in the assay on MOLT-4 leukemia; 4.44 µM with NCI-H522 lung. Further, the figures for the TGI in the assay with SK-MEL-28 melanoma, in the assay with SK-MEL-5 melanoma and with UO-31 renal were 45.8 µM, 15.2 µM and 17.8 µM, respectively.

Consider `CSCCOC(=O)C(=[N+]=[N-])c1ccc([N+](=O)[O-])cc1`, for which the TGI in the assay on A549 NSCLC, with ACHN renal, in the assay on HCT-116 colon, in the assay with HOP-62 NSCLC, in the assay with IGROV1 ovarian and in the assay on MOLT-4 leukemia was more than 100 µM throughout. For the same compound, the TGI in the assay on NCI-H522 lung, in the assay with SK-MEL-28 melanoma and with UO-31 renal was more than 100 µM each time.

Consider `CCOC(=O)c1ccc(NC(=O)SCCC(=O)O)cc1`, for which the TGI with A549 NSCLC, with ACHN renal, in the assay on HCT-116 colon, in the assay on HOP-62 NSCLC, with IGROV1 ovarian and in the assay on MOLT-4 leukemia was more than 100 µM in each case. Also, the TGI in the assay with SK-MEL-28 melanoma and in the assay with UO-31 renal was more than 100 µM in each case.

For `CCOC(=O)/C(C#N)=C1/C(O)=C(C(=O)OC)C(C(=O)OC)=C1C(=O)OC`, the TGI in the assay on A549 NSCLC, in the assay on ACHN renal, in the assay on IGROV1 ovarian, in the assay with MOLT-4 leukemia, with NCI-H522 lung and with SK-MEL-28 melanoma was more than 100 µM each time. Also, the TGI in the assay with SK-MEL-5 melanoma and with UO-31 renal was more than 100 µM in each case.

Turning to `O=C(NCC(O)CNC(=O)C(F)(F)F)C(F)(F)F`, the TGI in the assay on A549 NSCLC, in the assay with HCT-116 colon, in the assay on HOP-62 NSCLC, in the assay on IGROV1 ovarian, in the assay on MOLT-4 leukemia and in the assay on NCI-H522 lung was more than 100 µM each time. Moreover, the TGI with SK-MEL-5 melanoma and in the assay with UO-31 renal was more than 100 µM each time.

As for `Cc1cc2c(c3oc(C4(C)OC4C4OC4C)cc(=O)c13)C(=O)c1c(O)c(C3CC(C)(N(C)C)C(O)C(C)O3)cc(C3CC(N(C)C)C(O)C(C)O3)c1C2=O` (stereo not given), the TGI in the assay with A549 NSCLC was 0.00351 µM and 0.0142 µM and 0.0177 µM; in the assay on ACHN renal, 8.08e-05 µM and 0.000153 µM; in the assay on SK-MEL-28 melanoma, 0.00277 µM and 0.000596 µM; with SK-MEL-5 melanoma, 0.0014 µM and 0.000447 µM; with UO-31 renal, 0.0143 µM and 0.00225 µM. The GI50 with MOLT-4 leukemia was 0.0944 nM and 0.106 nM; in the assay on UO-31 renal, 0.00638 µM.

Regarding `Cc1nn(C)cc1P(=S)(c1ccccc1)c1ccccc1`, the TGI in the assay on A549 NSCLC, with ACHN renal, in the assay on HCT-116 colon, with HOP-62 NSCLC, in the assay on IGROV1 ovarian and with MOLT-4 leukemia was more than 100 µM in each case. In addition, the TGI in the assay with SK-MEL-28 melanoma, in the assay on SK-MEL-5 melanoma and in the assay with UO-31 renal was more than 100 µM in each case.

Regarding `C=C(C)[C@@H]1CC[C@]2(CO)CC[C@]3(C)[C@H](CC[C@@H]4[C@@]5(C)CCC(NCCc6ccc(O)cc6)C(C)(C)[C@@H]5CC[C@]43C)[C@@H]12` (stereo not given in full), the GI50 in the assay with A549 NSCLC was 1.48 µM; with ACHN renal, 1.62 µM; in the assay on HCT-116 colon, 1.39 µM; with MOLT-4 leukemia it was 1380 nM; with NCI-H522 lung it was 1.72 µM; in the assay with SK-MEL-28 melanoma, 1.58 µM. Also, the GI50 was 1.47 µM with SK-MEL-5 melanoma and 1.32 µM in the assay with UO-31 renal. In addition, the TGI in the assay on A549 NSCLC came to 3 µM; with ACHN renal it was 2.97 µM; with HCT-116 colon, 2.84 µM; in the assay with MOLT-4 leukemia it was 3.38 µM; in the assay with NCI-H522 lung, 3.33 µM; with SK-MEL-28 melanoma, 3 µM. For the same compound, the TGI was determined as 2.8 µM in the assay on SK-MEL-5 melanoma and 2.69 µM with UO-31 renal.

Regarding `OCC1OC(n2cnc3c(Cl)nc(Cl)cc32)C(O)C1O` (stereo not given), the GI50 with A549 NSCLC was more than 100 µM; in the assay with ACHN renal, more than 100 µM; in the assay with HCT-116 colon, more than 100 µM; in the assay with HOP-62 NSCLC, more than 100 µM; in the assay with IGROV1 ovarian it was more than 100 µM; in the assay on MOLT-4 leukemia it was more than 100000 nM. The GI50 with NCI-H522 lung, in the assay with SK-MEL-28 melanoma and with UO-31 renal was more than 100 µM each time. Further, the TGI in the assay with A549 NSCLC, with ACHN renal, in the assay with HCT-116 colon, in the assay on HOP-62 NSCLC, with IGROV1 ovarian and in the assay on MOLT-4 leukemia was more than 100 µM in each case. Further, the TGI in the assay with NCI-H522 lung, in the assay with SK-MEL-28 melanoma and with UO-31 renal was more than 100 µM throughout.

`CCOc1ccccc1NC(=O)CCc1n[nH]c(=S)o1`: the TGI in the assay on A549 NSCLC, with ACHN renal, with HCT-116 colon, with MOLT-4 leukemia, with NCI-H522 lung and in the assay on SK-MEL-28 melanoma was more than 100 µM throughout. The TGI with SK-MEL-5 melanoma and with UO-31 renal was more than 100 µM throughout.

For `COC(=O)c1ccc(Cl)cc1NC(=O)C1CCCCC1`, the TGI in the assay on A549 NSCLC, in the assay with ACHN renal, in the assay with HCT-116 colon, in the assay on MOLT-4 leukemia, in the assay on NCI-H522 lung and in the assay on SK-MEL-28 melanoma was more than 100 µM throughout. The same compound returned a TGI in the assay with UO-31 renal of more than 100 µM.

As for `CC[C@@H]1C[C@H]2CC3c4[nH]c5ccc(O)cc5c4CCN(C2)C31`, the TGI with A549 NSCLC, with ACHN renal, in the assay on HCT-116 colon, in the assay with HOP-62 NSCLC, with IGROV1 ovarian and in the assay with MOLT-4 leukemia was more than 100 µM in each case. Moreover, the TGI in the assay on SK-MEL-28 melanoma and in the assay on UO-31 renal was more than 100 µM in each case.

`CCCCN(CCCC)CCCn1c(=O)c2c3ccccc3n(C)c2n2nnc(-c3ccccc3)c12`: the GI50 was 43.9 µM in the assay with A549 NSCLC; 34.7 µM in the assay with ACHN renal; 18.4 µM in the assay with HCT-116 colon; 30.6 µM with HOP-62 NSCLC; 13900 nM in the assay with MOLT-4 leukemia; more than 100 µM with SK-MEL-28 melanoma. Besides, the GI50 in the assay with SK-MEL-5 melanoma was 31.9 µM; in the assay on UO-31 renal, 6.06 µM. Besides, the TGI in the assay with A549 NSCLC, in the assay on ACHN renal, in the assay with HCT-116 colon, in the assay with HOP-62 NSCLC, with MOLT-4 leukemia and in the assay on SK-MEL-28 melanoma was more than 100 µM throughout. The TGI in the assay with SK-MEL-5 melanoma was more than 100 µM; in the assay with UO-31 renal, 46.8 µM.

(Values after PubChem BioAssay (NCI).)
